Measured values taken from US20260325500A1, “METHODS AND COMPOSITIONS FOR TREATING ACUTE STRESS DISORDER” (BioXcel Therapeutics, Inc., priority 2022, published 2026).
Where a name gives a salt, the structure may show the parent alone.

Experiments:
[1] = tested on: Yohimbine-induced noradrenergic hyperarousal in Wistar rats; experiment: Elevated plus maze, yohimbine-induced noradrenergic hyperarousal, dose response (Example 3); format: in vivo; conditions: for Percent increase as referred to the Vehicle level, Entries / Percent increase as referred to the Vehicle level, Time: 60 min
Source text: Background: Yohimbine is an alpha 2-adrenergic receptor antagonist reported to trigger panic attacks in healthy volunteers and to exacerbate symptoms in patients with panic disorder (Charney et al., 1992 Acta Psychiatr Scand., Vol. 86 (4): 273-282). Peripheral administration of Yohimbine causes noradrenergic mediated hyperarousal in rats as assessed by the EPM paradigm.
Rationale: The drug yohimbine is a natural product used to test a specific pathway, noradrenergic-mediated hyper-arousal. It is well established that yohimbine is an alpha2-adrenergic receptor antagonist and activates the locus coeruleus (LC) and increases noradrenergic signaling (the opposite of alpha2-adrenergic agonists like dexmedetomidine and clonidine). Increased LC activity and noradrenergic signaling makes animals anxious and agitated which can be measured by using the elevated plus maze. In the elevated plus maze, rodents were in the closed arms and explored the open arms depending on their anxiety and agitation (rats and mice normally explore their environments extensively when calm). […] This behavior is correlated to increased level of anxiety caused by noradrenergic mediated hyperarousal.
Animal groups: Rats were distributed in 9 different experimental groups with 12 […] per group as illustrated in Table 6. Each experimental group was also coded so that the experimenter became unaware of the true experimental group at the time EPM trial.
Acclimatization: Male Wistar rats (Janvier; Le Genest St Isle-France) were used for the study. They were purchased at a body weight of 150 g and reached a body weight of about 220 g at the time of use. They were group-housed (3-4 rats per cage) and maintained in a room with controlled temperature (21-22° C.) and a reversed light-dark cycle (12 h/12 h; lights on: 17:30-05:30; lights off: 05:30-17:30).
Drug preparation: All compounds/drugs were prepared in normal saline (0.9% NaCl).
Yohimbine was prepared at a solution of 2.5 mg/mL which when injected i.p. at a dosage volume of 1 mL/kg results in a dose of 2.5 mg/kg. Diazepam was prepared at a solution of 1 mg/mL which when injected i.p. at a dosage volume of 1 mL/kg results in a dose of 1 mg/kg. Latrepirdine dihydrochloride hydrate was prepared at a solution of 7.5, 2.5, 0.75 and 0.25 mg/mL which when injected i.m. at a volume of 100 μL for a rat of 250 g results in doses of 3; 1; 0.3 and 0.1 mg/kg; respectively. Latrepirdine dihydrochloride hydrate was also prepared at […] which when administrated i.p. at a dosage volume of 1 mL/kg results in a dose of 3 mg/kg.
Experimental procedure: The rats were randomly assigned to one of the different experimental groups. Each animal was identified by its group name, cage number, series (day) of experiment, and a number (from 1 to 9) written with permanent ink on its tail. They were handled by an experimenter for about 3 min each day during 1 week prior to the day of EPM trial. The apparatus was a PVC maze covered with Plexiglas and subdivided into four equal exploratory arms (40×10 cm), which were all interconnected by a small platform (10×10 cm). The apparatus was placed 65 cm above the floor. Two arms were opened, and two others were closed with wall (high: 10 cm). After compound administration, rat was placed on the platform opposite a closed arm. The number of entries and the time spent in each arm were recorded during a 5 min period. The animal was considered as entered in an arm when it placed its four paws in the arm. The apparatus was cleaned between each animal using alcohol (70%). Urine and feces were removed from the maze. During the trials, animal handling and the visibility of the operator were minimized as much as possible.
Statistical analysis: Analysis of variance (ANOVA) was performed on the result data. Fisher's PLSD was used for pairwise comparisons and p value≤0.05 were considered significant. […]

[2] = tested on: rat forced swim test model (depressive-like behavior); experiment: Forced swim test in dark phase (Example 4); format: in vivo, Sprague Dawley rats; conditions: 1 mg/kg, i.m.; versus vehicle saline
Source text: Animal groups: Male Sprague Dawley (SD) rats (8-10 weeks old) were grouped housed 2 per cage in standard animal cages with facilities for pelleted food and drinking water in polycarbonate bottle with stainless steel sipper tubes. During the experimental period, animals were housed in a single experimental room. Rats were distributed in 7 different experimental groups with 9-12 rats per group as illustrated in Table 8. Animals were distributed to different groups based on body weight data. Each experimental group was also coded so that the experimenter became unaware of the true experimental group at the time FST trial.
Animals were housed in an environment-controlled room at 22±3° C. and relative humidity of 30 to 70 percent. During the study, 12/12 light/dark cycles were maintained. Lights of the acclimatization area were switched off at 06:00 PM. All experiments were carried out at ambient temperature under dark phase of lighting (between 06:00 PM to 06:00 AM). Adequate fresh air supply of 12-15 air changes/hour was maintained in the experimental room. The maximum and minimum temperature and relative humidity in the experimental rooms was recorded once daily. The relative humidity in the experimental room was calculated daily from dry and wet bulb temperature recordings.
Swim 1 was carried out between 18:30 to 21:30.
Swim 2 was carried out between 19:30 to 21:30. Animals were administered test compounds from 18:30 onwards in staggered manner 60 minutes before FST 2.
Forced swim test was carried out in dark phase
On Day 1, animals were subjected to forced swim test training for 15 minutes (Swim 1) and on Day 2, Swim 2 was carried out post treatment.
On day 2 animals were dosed with respective treatment 60 min prior to performing FST.
Forced swim test (Swim 2) was scored manually with no video recording.
Forced swim test (FST), was used to study the depressive-like behavior in rodents. The test was carried out in transparent cylindrical glass containers measuring 46 cm in height and 20 cm in diameter.
There were 2 swim sessions, 24 h apart. The first session, Swim 1 was the pretest/training stage (15 min) and the second session, Swim 2, was the test stage (8 min).
In swim 2, first 1-minute data was excluded from analysis and rest 7 minutes data was considered. In 7 minutes, data, it was divided 5 minutes and 2 minute.
Twenty-four hours after the start of Swim 1, the test swim (Swim 2) was carried out.
Rat was placed in the water-filled cylinder for 8 min (Swim 2).
The duration of time spent immobile, swimming, and climbing was observed by an observer blind to the treatment group.
Immobility period: A rat was judged to be immobile when it remained floating in the water without struggling and was making only those movements necessary to keep its head above water.
Statistical analysis: One Way ANOVA, Dunnet's multiple comparison test was applied with respect to vehicle saline and Tukey's multiple comparison test was applied to compare the data in between the groups using GraphPad Prism version 9 software.

[3] = 0.1 mg/kg, i.m., yohimbine hydrochloride 2.5 mg/kg i.p.
[4] = 0.3 mg/kg, i.m., yohimbine hydrochloride 2.5 mg/kg i.p.
[5] = 1 mg/kg, i.m., yohimbine hydrochloride 2.5 mg/kg i.p.
[6] = 3 mg/kg, i.m., saline (yohimbine-free rats)
[7] = 3 mg/kg, i.m., yohimbine hydrochloride 2.5 mg/kg i.p.
[8] = 3 mg/kg, i.p., yohimbine hydrochloride 2.5 mg/kg i.p.

**Q.** With Cc1ccc2c(c1)c1c(n2CCc2ccc(C)nc2)CCN(C)C1 [latrepirdine dihydrochloride hydrate] as the molecule, how does the “Percent increase as referred to the Vehicle level, Entries” value (from here on “Percent increase as referred … Entries”) [1, 3] read?
**A.** 21%

**Q.** And the “Percent increase as referred to the Vehicle level, Time” value (“Percent increase as referred … Time” below) [1, 3]?
**A.** 21%

**Q.** What about the “Percent increase as referred … Entries” value [1, 4] of the same molecule?
**A.** 11%

**Q.** And the “Percent increase as referred … Time” value [1, 4]?
**A.** 73%

**Q.** What about the “Percent increase as referred … Entries” value [1, 5] of the same molecule?
**A.** 106%

**Q.** What about the “Percent increase as referred … Time” value [1, 5] of the same molecule?
**A.** 274%

**Q.** What about the “EPM performance of saline-treated rats (yohimbine-free)” value ([1]; 3 mg/kg i.m.) of the same molecule?
**A.** did not significantly modify the EPM performance

**Q.** And the “EPM performance, i.m. compared with i.p. route” value ([1]; 3 mg/kg, yohimbine rats)?
**A.** comparable to that of specimens treated intraperitoneally

**Q.** What about the “Percent increase as referred … Entries” value [1, 6] of the same molecule?
**A.** 167%

**Q.** And the “Percent increase as referred … Time” value [1, 6]?
**A.** 377%

**Q.** And the “Percent increase as referred … Entries” value [1, 7]?
**A.** 172%

**Q.** And the “Percent increase as referred … Time” value [1, 7]?
**A.** 392%

**Q.** What about the “Percent increase as referred … Entries” value [1, 8] of the same molecule?
**A.** 183%

**Q.** And the “Percent increase as referred … Time” value [1, 8]?
**A.** 486%

**Q.** What about the “noradrenergic mediated hyperarousal in yohimbine administered rats” value ([1]; 1 and 3 mg/kg) of the same molecule?
**A.** Conclusion: The results showed that latrepirdine dihydrochloride hydrate (at 1 and 3 mg/kg) significantly reduced noradrenergic mediated hyperarousal in yohimbine administered rats in dose-dependent manner (see table 7 and FIGS. 5 and 6).

**Q.** And the “number of visits to and time spent into the open arms, significance” value ([1]; i.m., yohimbine administered rats, 0.1-3 mg/kg)?
**A.** effect was significant at the doses of 1 and 3 mg/kg

**Q.** What about the “increase in swimming time” value [2] of the same molecule?
**A.** 9.8%
